Measured values published in patent publication US7928098B2, “Therapeutic and/or preventive agents for a sleep disorder” (Kyowa Hakko Kirin Co., Ltd., priority 2005, dated 2011).

Row | SMILES | melting point
1 | CC(C)C(=O)c1sc(N)nc1-c1ccco1 [Compound 299, 2-Amino-4-(2-furyl)thiazol-5-yl isopropyl ketone] | 195 to 199 °C
2 | CC(C)C(=O)c1sc(NC(=O)C2CC2)nc1-c1ccco1 [Compound 301, N-[4-(2-Furyl)-5-isobutyrylthiazol-2-yl]cyclopropanecarboxamide] | 178 to 182 °C
3 | CC(C)(C)C(=O)c1sc(NC(=O)C2CC2)nc1-c1ccco1 [Compound 307, N-[4-(2-Furyl)-5-pivaloylthiazol-2-yl]cyclopropanecarboxamide] | 133 to 134 °C
4 | COc1ccccc1C(=O)Nc1nc(-c2ccco2)c(C(=O)C2CC2)s1 [Compound 326, N-[5-(Cyclopropylcarbonyl)-4-(2-furyl)thiazol-2-yl]-2-methoxybenzamide] | 150 to 154 °C
5 | Nc1nc(-c2ccco2)c(C(=O)C2CCC2)s1 [Compound 329, 2-Amino-4-(2-furyl)thiazol-5-yl cyclobutyl ketone] | 125 to 160 °C (dec.)
6 | O=C(Nc1nc(-c2ccco2)c(C(=O)C2CCC2)s1)c1ccco1 [Compound 331, N-[5-(Cyclobutylcarbonyl)-4-(2-furyl)thiazol-2-yl]furan-2-carboxamide] | 188 to 192 °C
7 | N#Cc1ccc(C(=O)Nc2nc(-c3ccco3)c(C(=O)C3CCC3)s2)cc1 [Compound 332, 4-Cyano-N-[5-(cyclobutylcarbonyl)-4-(2-furyl)thiazol-2-yl]benzamide] | 220 to 225 °C
8 | O=C(Nc1nc(-c2ccco2)c(C(=O)C2CCC2)s1)C1CC1 [Compound 333, N-[5-(Cyclobutylcarbonyl)-4-(2-furyl)thiazol-2-yl]cyclopropanecarboxamide] | 200 to 205 °C
9 | O=C(Nc1nc(-c2ccco2)c(C(=O)C2CCCC2)s1)C1CC1 [Compound 339, N-[5-(Cyclopentylcarbonyl)-4-(2-furyl)thiazol-2-yl]cyclopropanecarboxamide] | 182 to 187 °C
10 | O=C(c1sc(NC(=O)N2CCOCC2)nc1-c1ccco1)C1CCCC1 [Compound 340, N-[5-(Cyclopentylcarbonyl)-4-(2-furyl)thiazol-2-yl]morpholine-4-carboxamide] | 108 to 110 °C
11 | COC1CCC(C(=O)c2sc(NC(=O)c3ccc(C#N)cc3)nc2-c2ccco2)CC1 (stereo not drawn) [Compound 348, 4-Cyano-N-[4-(2-furyl)-5-(4-methoxycyclohexylcarbonyl)-thiazol-2-yl]benzamide] | 105 to 109 °C
12 | Cc1cc(C(=O)Nc2nc(-c3ccco3)c(C(=O)C3CCC(=O)CC3)s2)ccn1 [Compound 354, N-[4-(2-Furyl)-5-(4-oxocyclohexylcarbonyl)thiazol-2-yl]-2-methylpyridine-4-carboxamide] | 108 to 115 °C
13 | O=C1CCC(C(=O)c2sc(NC(=O)c3ccco3)nc2-c2ccco2)CC1 [Compound 355, N-[4-(2-Furyl)-5-(4-oxocyclohexylcarbonyl)thiazol-2-yl]-furan-2-carboxamide] | 232 to 235 °C
14 | COc1cccc(C(=O)Nc2nc(-c3ccco3)c(C(=O)C3CCC(=O)CC3)s2)c1 [Compound 356, N-[4-(2-Furyl)-5-(4-oxocyclohexylcarbonyl)thiazol-2-yl]-3-methoxybenzamide] | 176 to 183 °C
15 | N#Cc1ccc(C(=O)Nc2nc(-c3ccco3)c(C(=O)C3CCC(=O)CC3)s2)cc1 [Compound 357, 4-Cyano-N-[4-(2-furyl)-5-(4-oxocyclohexylcarbonyl)-thiazole-2-yl]benzamide] | 211 to 212 °C
16 | O=C(Nc1nc(-c2ccco2)c(C(=O)C2CCOCC2)s1)c1ccccc1 [Compound 362, N-[4-(2-Furyl)-5-(tetrahydropyran-4-ylcarbonyl)thiazol-2-yl]benzamide] | 221 to 222 °C
17 | Cc1ccccc1C(=O)Nc1nc(-c2ccco2)c(C(=O)C2CCOCC2)s1 [Compound 363, N-[4-(2-Furyl)-5-(tetrahydropyran-4-ylcarbonyl)thiazol-2-yl]-2-methylbenzamide] | 204 to 206 °C
18 | Cc1cccc(C(=O)Nc2nc(-c3ccco3)c(C(=O)C3CCOCC3)s2)c1 [Compound 364, N-[4-(2-Furyl)-5-(tetrahydropyran-4-ylcarbonyl)thiazol-2-yl]-3-methylbenzamide] | 197 to 201 °C
19 | COc1ccccc1C(=O)Nc1nc(-c2ccco2)c(C(=O)C2CCOCC2)s1 [Compound 366, N-[4-(2-Furyl)-5-(tetrahydropyran-4-ylcarbonyl)thiazol-2-yl]-2-methoxybenzamide] | 181 to 184 °C
20 | COc1ccc(C(=O)Nc2nc(-c3ccco3)c(C(=O)C3CCOCC3)s2)cc1 [Compound 368, N-[4-(2-Furyl)-5-(tetrahydropyran-4-ylcarbonyl)thiazol-2-yl]-4-methoxybenzamide] | 184 to 188 °C
21 | CN(C)c1cccc(C(=O)Nc2nc(-c3ccco3)c(C(=O)C3CCOCC3)s2)c1 [Compound 369, 3-(Dimethylamino)-N-[4-(2-furyl)-5-(tetrahydropyran-4-ylcarbonyl)thiazol-2-yl]benzamide] | 239 to 243 °C

Second part, the molecule after the results:

Row | melting point | SMILES
22 | 277 to 281 °C | CCn1ccc(C(=O)c2sc(NC(=O)c3ccncc3)nc2-c2ccco2)cc1=O [Compound 276, N-[5-(1-Ethyl-2-oxo-1,2-dihydropyridin-4-ylcarbonyl)-4-(2-furyl)thiazol-2-yl]pyridine-4-carboxamide]
23 | 288 to 291 °C | O=C(Nc1nc(-c2ccco2)c(C(=O)c2ccn(Cc3ccccc3)c(=O)c2)s1)c1ccncc1 [Compound 278, N-[5-(1-Benzyl-2-oxo-1,2-dihydropyridin-4-ylcarbonyl)-4-(2-furyl)thiazol-2-yl]pyridine-4-carboxamide]
24 | > 300 °C | O=C(Nc1nc(-c2ccco2)c(C(=O)c2cnccn2)s1)c1ccncc1 [Compound 281, N-[4-(2-Furyl)-5-(pyrazin-2-ylcarbonyl)thiazol-2-yl]pyridine-4-carboxamide]
25 | > 300 °C | O=C(Nc1nc(-c2ccco2)c(C(=O)c2ccncn2)s1)c1ccncc1 [Compound 282, N-[4-(2-Furyl)-5-(pyrimidine-4-ylcarbonyl)thiazol-2-yl]pyridine-4-carboxamide]
26 | 280 to 281 °C | O=C(Nc1nc(-c2ccco2)c(C(=O)c2cccnn2)s1)c1ccncc1 [Compound 283, N-[4-(2-Furyl)-5-(pyridazine-3-ylcarbonyl)thiazol-2-yl]pyridine-4-carboxamide]
27 | 252 to 259 °C (dec.) | CC(=O)c1sc(NC(=O)c2ccncc2)nc1-c1ccco1 [Compound 284, N-[5-Acetyl-4-(2-furyl)thiazol-2-yl]pyridine-4-carboxamide]
28 | 268 to 270 °C | O=C(Nc1nc(-c2ccco2)c(C(=O)C(F)(F)F)s1)c1ccncc1 [Compound 287, N-[4-(2-Furyl)-5-(trifluoroacetyl)thiazol-2-yl]pyridine-4-carboxamide]
29 | 225 to 240 °C (dec.) | CCC(=O)c1sc(NC(=O)c2ccncc2)nc1-c1ccco1 [Compound 288, N-[4-(2-Furyl)-5-propionylthiazol-2-yl]pyridine-4-carboxamide]
30 | 191 to 194 °C | CCCC(=O)c1sc(NC(=O)c2ccncc2)nc1-c1ccco1 [Compound 289, N-[5-Butyryl-4-(2-furyl)thiazol-2-yl]pyridine-4-carboxamide]
31 | 170 to 172 °C | CCCC(=O)c1sc(NC(=O)C2CC2)nc1-c1ccco1 [Compound 292, N-[5-Butyryl-4-(2-furyl)thiazol-2-yl]cyclopropanecarboxamide]
32 | 172 to 176 °C | CCCC(=O)c1sc(NC(=O)c2ccco2)nc1-c1ccco1 [Compound 293, N-[5-Butyryl-4-(2-furyl)thiazol-2-yl]furan-2-carboxamide]
33 | 179 to 182 °C | CC(C)C(=O)c1sc(NC(=O)c2ccncc2)nc1-c1ccco1 [Compound 300, N-[4-(2-Furyl)-5-isobutyrylthiazol-2-yl]pyridine-4-carboxamide]
34 | 240 to 245 °C | CC(C)(C)C(=O)c1sc(NC(=O)c2ccncc2)nc1-c1ccco1 [Compound 306, N-[4-(2-Furyl)-5-pivaloylthiazol-2-yl]pyridine-4-carboxamide]
35 | 174 to 183 °C | COCC(=O)c1sc(NC(=O)c2ccc(Cl)nc2)nc1-c1ccco1 [Compound 310, 2-Chloro-N-[4-(2-furyl)-5-(methoxyacetyl)thiazol-2-yl]pyridine-5-carboxamide]
36 | 166 to 167 °C | COCC(=O)c1sc(NC(=O)c2ccc(F)cc2)nc1-c1ccco1 [Compound 311, 4-Fluoro-N-[4-(2-furyl)-5-(methoxyacetyl)thiazol-2-yl]benzamide]
37 | 198 to 200 °C | COCC#CC(=O)c1sc(NC(=O)c2ccncc2)nc1-c1ccco1 [Compound 319, N-[4-(2-Furyl)-5-(3-methoxyprop-1-ynylcarbonyl)thiazol-2-yl]pyridine-4-carboxamide]
38 | 225 to 230 °C (dec.) | O=C(Nc1nc(-c2ccco2)c(C(=O)C2CC2)s1)c1ccncc1 [Compound 323, N-[5-(Cyclopropylcarbonyl)-4-(2-furyl)thiazol-2-yl]pyridine-4-carboxamide]
39 | 227 to 235 °C (dec.) | O=C(Nc1nc(-c2ccco2)c(C(=O)C2CCC2)s1)c1ccncc1 [Compound 330, N-[5-(Cyclobutylcarbonyl)-4-(2-furyl)thiazol-2-yl]pyridine-4-carboxamide]
40 | 197 to 199 °C | O=C(Nc1nc(-c2ccco2)c(C(=O)C2CCCCC2)s1)c1ccncc1 [Compound 344, N-[5-(Cyclohexylcarbonyl)-4-(2-furyl)thiazol-2-yl]pyridine-4-carboxamide]
41 | 180 to 187 °C | COC1CCC(C(=O)c2sc(NC(=O)c3ccncc3)nc2-c2ccco2)CC1 (stereo not drawn) [Compound 347, N-[4-(2-Furyl)-5-(4-methoxycyclohexylcarbonyl)thiazol-2-yl]pyridine-4-carboxamide]
42 | 206 to 212 °C | O=C1CCC(C(=O)c2sc(NC(=O)c3ccncc3)nc2-c2ccco2)CC1 [Compound 353, N-[4-(2-Furyl)-5-(4-oxocyclohexylcarbonyl)thiazol-2-yl]-pyridine-4-carboxamide]
